Results reported in patent US8598132B2, “Glycosylated indolocarbazoles, method for obtaining same and uses thereof” (Universidad de Oviedo, priority 2008, dated 2013).

Experiments:
RSK1 = molecular target: T1, RSK1 (Homo sapiens, UniProt Q15418); assay: LabChip (Caliper) kinase assay, RSK1; type: biochemical; conditions: read-out: remaining kinase activity (in %) / percentage of inhibition; for inhibition at 0.01 µM: compound at 10 nM; for inhibition at 0.1 µM: compound at 100 nM
T1 construct: purchased Carna Biosciences
T1 sequence (Q15418 whole entry): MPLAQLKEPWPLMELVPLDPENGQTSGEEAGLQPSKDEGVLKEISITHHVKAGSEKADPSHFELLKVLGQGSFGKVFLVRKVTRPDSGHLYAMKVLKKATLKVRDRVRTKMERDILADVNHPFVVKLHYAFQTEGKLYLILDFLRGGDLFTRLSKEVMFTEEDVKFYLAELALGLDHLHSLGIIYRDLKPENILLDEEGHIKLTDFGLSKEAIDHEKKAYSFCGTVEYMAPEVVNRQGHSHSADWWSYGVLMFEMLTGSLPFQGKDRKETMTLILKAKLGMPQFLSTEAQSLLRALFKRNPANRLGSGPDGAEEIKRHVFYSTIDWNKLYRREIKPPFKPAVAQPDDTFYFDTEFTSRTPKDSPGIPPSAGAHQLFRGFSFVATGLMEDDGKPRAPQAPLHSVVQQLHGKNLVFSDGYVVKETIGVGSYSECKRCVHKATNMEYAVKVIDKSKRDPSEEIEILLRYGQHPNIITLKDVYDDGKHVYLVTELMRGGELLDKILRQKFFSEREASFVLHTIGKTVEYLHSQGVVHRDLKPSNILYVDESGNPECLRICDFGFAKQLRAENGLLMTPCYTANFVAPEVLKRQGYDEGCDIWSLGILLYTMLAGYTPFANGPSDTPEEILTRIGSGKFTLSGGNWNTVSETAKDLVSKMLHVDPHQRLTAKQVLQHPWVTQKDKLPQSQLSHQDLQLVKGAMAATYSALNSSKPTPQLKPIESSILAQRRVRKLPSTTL
Protocol: (§1) The analysis of kinase activity described here was performed using LabChip (Caliper Life Sciences), specifically the Caliper LC3000 and the EZ Reader II instruments.
(§2) The kinase assay used measures the conversion of a fluorescent peptide (substrate) to a phosphorylated product. The reaction mixture, in a microplate well, is introduced by a capillary in a chip where the non-phosphorylated substrate and the phosphorylated product are separated by […]. The intensity of the fluorescent signal over time is related to the reaction progress. The phosphorylated product migrates quicker than the non-phosphorylated substrate and the signals of the two forms of the peptide appear as differentiated peaks. The Caliper determines the peak height and calculates the ratio of product to the peak sum (P/(P+S)). This value is used to compare wells with compounds and wells with controls and thus determine the % of inhibition for the given product.
(§3) The followings kinases were used for the enzymatic inhibition studies, between brackets the value of the Michaelis-Menten constant, Km, of the ATP (Adenosine triphosphate) for each kinase, in μM: obtained from Carna Biosciences: MAPKAPK2 (4.6), AurA (3.6), AurB (5), PKCζ (3.8), RSK1 (23.3), PRAK (5), Erk1 (33.4), PKD2 (32.1), CK1d (16.3), CHK1 (33), ABL (61.7), FYN (36), LYNa (17), CHK2 (57.8), MET (79.5), LCK (28.5), SRC (38), GSK3β (7.3), Erk2 (62.1), PKACα (1.7), AKT2 (186.1), INSR (871.8), p38a (396.5), AKT1(48), MSK1 (21.2), PKCβ2 (84.8), ROCK2 (3.3), PIM2 (4.9), AMPK (38.6), KDR (164.8), IRAK4 (196.5), SGK1 (121.8), SYK (33.5); obtained from Invitrogen: CDK2 (57.6), BTK (123), HGK (80); obtained from Upstate: MST2 (36.6), PKGα (16), PAK2 (1.9), IGF1R (320), FGFR1 (171), MARK1 (33), CAMK2δ (22.4), c-TAK1 (66), DYRK1a (18.1), CaMK4 (3.9), FLT3 (350), c-Raf (6.2), P70S6K (95).
(§4) The compounds were dissolved in 100% DMSO and were diluted at 25 times the final concentration desired for the assay. In the case of the determination of Cl50, serial dilutions were made to reach eight concentrations and give rise to the inhibition curve. 1 μL of each concentration is transferred, in duplicate to a 384-well microplate. 12 μL of enzymatic buffer is added to each well containing purified kinase (several suppliers as indicated above), 100 mM HEPES, pH 7.5, 1 mM DTT (Calbiochem), 0.002% Brij-35 (Sigma) and also in presence of 10 mM MgCl2 as cofactor, except for INSR and IRAK4 wherein 10 mM MnCl2 is used instead of MgCl2. For the kinases CAMK26 and CAMK4, 1 mM CaCl2 and 6.7 μg/mL of calmodulin are also added. For KDR kinase, 0.05% of the CHAPSO detergent is added. For the c-Raf kinase, 10 mM MnCl2 is added. For PKCβ2 0.02 μg/mL of PS/PMA is added. For PKGα se 10 μM of cGMP (cyclic guanosine monophosphate) is added. The compound and the enzyme are left for 15 minutes preincubation and, then, the following are added to each well: 12 μL of peptide buffer/ATP containing 100 mM HEPES, pH 7.5, 1.5 μM peptide marker with fluorescein (specific for the corresponding kinase), ATP (at concentration KM), and 0.002% Brij-35 to start the reaction. Generally, the reactions are incubated for 1-1.5 h at ambient temperature to obtain an adequate conversion (15-40%) of the peptide to the phosphorylated product. The reactions were ended by the addition of 45 μL of buffer containing 0 mM EDTA. The microplates were read by the LabChip 3000 using a 12-channel LabChip. The P/(P+S) values were obtained as described above and the CI50 curves were generated using XIfit. […]

SGK1 = molecular target: T2, SGK1 (Homo sapiens, UniProt O00141); assay: LabChip (Caliper) kinase assay, SGK1; type: biochemical; conditions: read-out: remaining kinase activity (in %) / percentage of inhibition; for inhibition at 0.01 µM: compound at 10 nM; for inhibition at 0.1 µM: compound at 100 nM
T2 construct: purchased Carna Biosciences
T2 sequence (O00141 1-431): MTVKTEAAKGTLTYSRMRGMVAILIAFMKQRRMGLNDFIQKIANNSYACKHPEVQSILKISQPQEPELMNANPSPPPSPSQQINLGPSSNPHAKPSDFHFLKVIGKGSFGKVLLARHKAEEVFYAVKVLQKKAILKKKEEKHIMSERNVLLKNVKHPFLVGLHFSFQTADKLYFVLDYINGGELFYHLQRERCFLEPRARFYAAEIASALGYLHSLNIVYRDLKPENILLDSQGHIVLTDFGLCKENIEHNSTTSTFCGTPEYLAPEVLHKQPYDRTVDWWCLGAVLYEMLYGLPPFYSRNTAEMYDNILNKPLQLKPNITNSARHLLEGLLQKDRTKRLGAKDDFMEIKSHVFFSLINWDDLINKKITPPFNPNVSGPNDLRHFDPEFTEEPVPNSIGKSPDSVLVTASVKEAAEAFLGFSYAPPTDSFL
Protocol: as §1, §2, §3, §4

| SMILES | inhibition at 0.01 µM (RSK1) | inhibition at 0.1 µM (RSK1) | inhibition at 0.01 µM (SGK1) | inhibition at 0.1 µM (SGK1) |
| --- | --- | --- | --- | --- |
| C[C@@H]1O[C@@H](n2c3ccccc3c3c4c(c5c6ccccc6[nH]c5c32)C(=O)NC4=O)C[C@H](O)[C@H]1O [formula (IV), N^13-1′-β-L-olivosylarcyriaflavin] | 14% | 77% | 9% | 17% |
| C[C@H]1O[C@@H](n2c3ccccc3c3c4c(c5c6ccccc6[nH]c5c32)CNC4=O)C[C@@H](O)[C@@H]1O [formula (XV), N^13-1′-β-D-olivosyl-k252c] | -1% | 31% | 9% | 12% |
| C[C@@H]1O[C@@H](n2c3ccccc3c3c4c(c5c6ccccc6[nH]c5c32)CNC4=O)[C@H](O)[C@H](O)[C@H]1O [formula (XII), N^13-1′-β-L-rhamnosyl-k252c] | -4% | 7% | 7% | 6% |
| C[C@@H]1O[C@@H](n2c3ccccc3c3c4c(c5c6ccccc6[nH]c5c32)CNC4=O)C[C@@H](O)[C@H]1O [formula (XIV), N^13-1′-β-L-digitoxosyl-k252c] | -1% | 22% | 6% | 14% |
| C[C@@H]1O[C@@H](n2c3ccccc3c3c4c(c5c6ccccc6[nH]c5c32)CNC4=O)C[C@H](O)[C@H]1O [formula (XIII), N^13-1′-β-L-olivosyl-k252c] | 7% | 56% | 8% | 15% |
| C[C@@H]1O[C@@H](n2c3ccccc3c3c4c(c5c6ccccc6[nH]c5c32)C(=O)NC4=O)C[C@@H](O)[C@H]1O [formula (V), N^13-1′-β-L-digitoxosylarcyriaflavin] | 38% | 77% | 17% | 37% |
| C[C@@H]1O[C@@H](n2c3ccccc3c3c4c(c5c6ccccc6[nH]c5c32)C(=O)NC4=O)[C@H](O)[C@H](O)[C@H]1O [formula (III), N^13-1′-β-L-rhamnosylarcyriaflavin] | 2% | 20% | 8% | 13% |
| C[C@H]1O[C@@H](n2c3ccccc3c3c4c(c5c6ccccc6[nH]c5c32)C(=O)NC4=O)C[C@@H](O)[C@@H]1O [formula (VI), N^13-1′-β-D-olivosylarcyriaflavin] | 31% | 74% | 12% | 27% |
